# In PMC12155096 (International Journal of Molecular Sciences, 2025):
# Counter-ions that a name gives are not always drawn. Like-named read-outs stand apart in the source and are kept apart here.
# Assays:
# [1] = target: T1, human CYP2C19 (Homo sapiens, UniProt P33261); experiment: biochemical; conditions: CYP2C19 IC50 (half-maximal inhibitory concentration)
# [2] = target: T2, human CYP1A2 (Homo sapiens, UniProt P05177); conditions: for CYP1A2 Efficacy (in parenthesis): human
# T2 sequence (P05177 1-516): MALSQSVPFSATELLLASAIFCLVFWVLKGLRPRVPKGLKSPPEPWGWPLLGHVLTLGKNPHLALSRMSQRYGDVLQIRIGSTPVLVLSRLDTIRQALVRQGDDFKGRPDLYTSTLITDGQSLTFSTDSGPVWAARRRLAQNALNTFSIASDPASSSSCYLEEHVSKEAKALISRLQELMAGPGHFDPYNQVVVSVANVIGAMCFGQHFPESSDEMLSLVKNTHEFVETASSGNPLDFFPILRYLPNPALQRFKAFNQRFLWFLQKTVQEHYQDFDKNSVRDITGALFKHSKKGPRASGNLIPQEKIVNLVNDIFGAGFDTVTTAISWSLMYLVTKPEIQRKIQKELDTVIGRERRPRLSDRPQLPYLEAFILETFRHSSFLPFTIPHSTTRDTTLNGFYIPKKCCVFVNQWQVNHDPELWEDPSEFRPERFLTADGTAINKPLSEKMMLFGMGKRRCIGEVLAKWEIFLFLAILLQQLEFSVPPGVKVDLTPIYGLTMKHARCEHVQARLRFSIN
# [3] = target: T1, human CYP2C19; conditions: for CYP2C19 Efficacy (in parenthesis): human
# [4] = target: T3, human CYP2D6 (Homo sapiens, UniProt P10635); conditions: for CYP2D6 Efficacy (in parenthesis): human
# T3 sequence (P10635 whole entry): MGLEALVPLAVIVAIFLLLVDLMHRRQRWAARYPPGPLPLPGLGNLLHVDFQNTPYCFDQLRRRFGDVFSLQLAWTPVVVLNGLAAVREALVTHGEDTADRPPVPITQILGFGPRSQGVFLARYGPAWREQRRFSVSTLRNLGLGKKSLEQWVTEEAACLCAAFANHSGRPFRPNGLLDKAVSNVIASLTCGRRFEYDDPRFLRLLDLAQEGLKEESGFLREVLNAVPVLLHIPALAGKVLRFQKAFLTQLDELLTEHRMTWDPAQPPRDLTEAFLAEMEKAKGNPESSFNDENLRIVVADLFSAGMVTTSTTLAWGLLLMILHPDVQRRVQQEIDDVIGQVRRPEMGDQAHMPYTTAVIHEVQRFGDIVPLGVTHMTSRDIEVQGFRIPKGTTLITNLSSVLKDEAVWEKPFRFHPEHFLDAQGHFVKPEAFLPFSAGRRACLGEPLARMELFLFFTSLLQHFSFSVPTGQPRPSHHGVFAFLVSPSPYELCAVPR
# [5] = target: T2, human CYP1A2; experiment: biochemical; conditions: CYP1A2 IC50 (half-maximal inhibitory concentration)
# [6] = target: T4, CYP3A4 (Homo sapiens, UniProt P08684)
# T4 sequence (P08684 whole entry): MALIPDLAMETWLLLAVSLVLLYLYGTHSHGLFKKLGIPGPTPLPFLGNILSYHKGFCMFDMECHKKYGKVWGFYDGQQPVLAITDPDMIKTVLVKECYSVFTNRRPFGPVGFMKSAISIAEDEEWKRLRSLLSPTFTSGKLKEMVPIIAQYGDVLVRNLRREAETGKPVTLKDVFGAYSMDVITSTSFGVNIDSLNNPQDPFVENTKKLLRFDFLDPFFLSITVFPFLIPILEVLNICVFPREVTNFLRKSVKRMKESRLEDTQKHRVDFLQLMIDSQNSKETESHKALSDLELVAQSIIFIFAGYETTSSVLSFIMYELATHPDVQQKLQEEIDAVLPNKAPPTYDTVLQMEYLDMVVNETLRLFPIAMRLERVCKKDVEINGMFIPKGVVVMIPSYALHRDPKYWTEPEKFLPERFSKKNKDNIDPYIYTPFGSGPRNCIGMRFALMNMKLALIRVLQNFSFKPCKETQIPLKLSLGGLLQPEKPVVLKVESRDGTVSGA
# [7] = target: T5, human CYP2C9 (Homo sapiens, UniProt P11712); conditions: for CYP2C9 Efficacy (in parenthesis): human
# T5 sequence (P11712 whole entry): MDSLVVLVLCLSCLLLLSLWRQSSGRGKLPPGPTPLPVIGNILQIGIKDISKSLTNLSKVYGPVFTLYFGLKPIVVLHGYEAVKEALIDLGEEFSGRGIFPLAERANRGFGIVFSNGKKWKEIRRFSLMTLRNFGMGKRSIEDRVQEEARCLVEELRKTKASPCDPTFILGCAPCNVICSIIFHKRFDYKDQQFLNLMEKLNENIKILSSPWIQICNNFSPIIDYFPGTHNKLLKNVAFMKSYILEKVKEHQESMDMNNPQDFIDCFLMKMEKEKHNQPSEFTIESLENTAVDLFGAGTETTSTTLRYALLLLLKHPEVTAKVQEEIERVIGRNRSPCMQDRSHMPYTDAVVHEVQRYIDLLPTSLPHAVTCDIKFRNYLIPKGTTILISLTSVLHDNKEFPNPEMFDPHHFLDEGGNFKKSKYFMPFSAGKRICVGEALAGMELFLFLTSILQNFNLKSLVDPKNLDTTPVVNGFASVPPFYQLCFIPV
# [8] = target: Photinus pyralis (firefly) luciferase (Photinus pyralis, UniProt P08659); experiment: biochemical; assay type: biochemical
# Sequence of Photinus pyralis (firefly) luciferase (P08659 whole entry): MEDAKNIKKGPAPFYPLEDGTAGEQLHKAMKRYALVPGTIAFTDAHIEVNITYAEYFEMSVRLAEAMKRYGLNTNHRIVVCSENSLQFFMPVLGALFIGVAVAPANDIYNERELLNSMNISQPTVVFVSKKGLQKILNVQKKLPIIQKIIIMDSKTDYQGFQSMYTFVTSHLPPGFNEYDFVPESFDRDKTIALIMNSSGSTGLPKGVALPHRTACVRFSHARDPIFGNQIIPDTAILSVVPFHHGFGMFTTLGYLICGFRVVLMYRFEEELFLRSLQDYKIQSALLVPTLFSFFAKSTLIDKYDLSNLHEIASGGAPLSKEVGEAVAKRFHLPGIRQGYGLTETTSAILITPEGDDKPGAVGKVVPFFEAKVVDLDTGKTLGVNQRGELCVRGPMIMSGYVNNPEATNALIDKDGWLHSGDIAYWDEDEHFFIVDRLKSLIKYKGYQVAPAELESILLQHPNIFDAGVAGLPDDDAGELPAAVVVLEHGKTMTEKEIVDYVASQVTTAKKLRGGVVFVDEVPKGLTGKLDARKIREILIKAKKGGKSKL
# [9] = target: T3, human CYP2D6; experiment: biochemical; conditions: CYP2D6 IC50 (half-maximal inhibitory concentration)
# [10] = target: T4, CYP3A4; experiment: biochemical
# [11] = target: T5, human CYP2C9; experiment: biochemical; conditions: for IC50: CYP2C9 IC50 (half-maximal inhibitory concentration)
# [12] = CYP3A4 AC50 (half-maximal activity concentration)
# [13] = CYP2C9 AC50 (half-maximal activity concentration)
# T1 sequence (P33261 whole entry): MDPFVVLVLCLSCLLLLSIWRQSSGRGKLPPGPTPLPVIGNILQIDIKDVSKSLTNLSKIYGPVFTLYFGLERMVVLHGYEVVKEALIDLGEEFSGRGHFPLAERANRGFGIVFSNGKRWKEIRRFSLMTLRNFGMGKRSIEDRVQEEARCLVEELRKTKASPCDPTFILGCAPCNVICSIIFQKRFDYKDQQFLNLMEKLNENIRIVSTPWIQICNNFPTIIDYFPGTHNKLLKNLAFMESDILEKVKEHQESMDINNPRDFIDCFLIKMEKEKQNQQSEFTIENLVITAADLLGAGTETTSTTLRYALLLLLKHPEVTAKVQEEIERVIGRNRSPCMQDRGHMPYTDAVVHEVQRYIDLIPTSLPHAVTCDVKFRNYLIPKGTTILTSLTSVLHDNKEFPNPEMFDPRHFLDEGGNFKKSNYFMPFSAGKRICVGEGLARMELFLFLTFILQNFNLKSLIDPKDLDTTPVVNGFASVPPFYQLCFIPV
Compound,IC50 [1],CYP1A2 Efficacy (in parenthesis) [2],CYP2C19 Efficacy (in parenthesis) [3],CYP2D6 Efficacy (in parenthesis) [4],IC50 [5],CYP3A4 IC50 (half-maximal inhibitory concentration) [6],CYP2C9 IC50 (half-maximal inhibitory concentration) [7],Luciferase IC50 (half-maximal inhibitory concentration) [8],IC50 [9],CYP1A2 AC50 (half-maximal activity concentration) [2],further results
O=[N+]([O-])c1ccc2ccc3cccc4ccc1c2c34 [1-Nitropyrene],14 µM,0.27 ± 0.05 (-96 ± 5) %,14.04 ± 11.88 (-69 ± 19) %,33 ± 2.23 (-91 ± 22) %,0.27 µM,Inactive,Inactive,Inactive,33 µM,–,–
"Clc1ccccc1-c1ccccc1Cl [2,2'-Dichlorobiphenyl]",–,–,–,–,–,–,–,–,–,Inconclusive inhibitor,"CYP2C19 AC50 (half-maximal activity concentration) [3]: Inconclusive activator; CYP2D6 AC50 (half-maximal activity concentration) [4]: Inactive; AC50 [10, 12]: 14.6 µM; AC50 [11, 13]: 39 µM"
"CC(Oc1cc(Cl)c(Cl)cc1Cl)C(=O)O (centres unmarked) [2-(2,4,5-Trichlorophenoxy)propionic acid]",–,–,–,–,–,–,–,–,–,Inactive,"CYP2C19 AC50 (half-maximal activity concentration) [3]: Inactive; CYP2D6 AC50 (half-maximal activity concentration) [4]: Inactive; AC50 [10, 12]: 76.9 µM; AC50 [11, 13]: 28.4 µM"
"O=C(O)c1cc(Cl)cc(Cl)c1O [3,5-Dichlorosalicylic acid]",–,–,–,–,–,–,–,–,–,Inconclusive inhibitor,CYP2C19 AC50 (half-maximal activity concentration) [3]: Inactive; CYP2D6 AC50 (half-maximal activity concentration) [4]: Inactive; AC50 [10]: 37 µM; AC50 [11]: 28.3 µM
N#Cc1cc(Br)c(O)c(Br)c1 [Bromoxynil],–,–,–,–,–,–,–,–,–,Inactive,"CYP2C19 AC50 (half-maximal activity concentration) [3]: Inactive; CYP2D6 AC50 (half-maximal activity concentration) [4]: Inactive; AC50 [10, 12]: 29.6 µM; AC50 [11, 13]: 18.7 µM"
OC(c1ccc(Cl)cc1)(c1ccc(Cl)cc1)C(Cl)(Cl)Cl [Dicofol],0.29 µM,8.5 ± 4.94 (-106 ± 9) %,0.29 ± 0.44 (-153 ± 1) %,44.8 ± 22.68 (-69 ± 14) %,8.5 µM,Inactive,–,Inactive,44.8 µM,–,IC50 [11]: 4.89 µM; CYP2C9 Efficacy (in parenthesis) [7]: 4.89 ± 4.11 (-104 ± 9) %
CCn1ccnc1CC1COc2ccccc2O1 (centres unmarked) [Imiloxan],4.42 µM,–,–,–,25.3 µM,Inactive,Inactive,Inactive,0.69 µM,–,–
CCCC(Cn1cncn1)c1ccc(Cl)cc1Cl (centres unmarked) [Penconazole],0.14 µM,23.57 ± 4.24 (-101 ± 7) %,0.14 ± 0.02 (-137 ± 5) %,43.51 ± 17.21 (-88 ± 16) %,23.6 µM,Inactive,–,Inactive,43.5 µM,–,IC50 [11]: 5.66 µM; CYP2C9 Efficacy (in parenthesis) [7]: 5.66 ± 0.65 (-101 ± 4) %
C[C@@H]1O[C@@H](O[C@@H]2C=C3CC[C@@H]4[C@H](CC[C@]5(C)[C@@H](c6ccc(=O)oc6)CC[C@]45O)[C@@]3(C)CC2)[C@H](O)[C@H](O)[C@H]1O [Proscillaridin],–,–,–,–,–,–,–,–,–,Inactive,"CYP2C19 AC50 (half-maximal activity concentration) [3]: Inconclusive activator; CYP2D6 AC50 (half-maximal activity concentration) [4]: Inactive; AC50 [10, 12]: 33.4 µM"
COc1ccc(CN(CCN(C)C)c2ccccn2)cc1 [Pyrilamine maleate],15.8 µM,–,–,–,62.7 µM,Inactive,Inactive,Inactive,0.18 µM,–,–
Fc1ccc(Oc2ccnc3cc(Cl)cc(Cl)c23)cc1 [Quinoxyfen],13.3 µM,0.53 ± 0.32 (-98 ± 2) %,13.35 ± 5.76 (-134 ± 20) %,37.02 ± 2.51 (-71 ± 14) %,0.53 µM,Inactive,–,–,37 µM,–,IC50 [11]: 23.2 µM; CYP2C9 Efficacy (in parenthesis) [7]: 23.18 ± 7.46 (-103 ± 2) %; IC50 [8]: 59.2 µM
Cc1c(C(=O)NN2CCCCC2)nn(-c2ccc(Cl)cc2Cl)c1-c1ccc(Cl)cc1 [Rimonabant],–,–,–,–,–,–,–,–,–,Inactive,AC50 [10]: 4.96 ± 0.93 µM
O=S(=O)(c1ccc(Cl)cc1)c1cc(Cl)c(Cl)cc1Cl [Tetradifon],0.27 µM,31.85 ± 3.66 (-38 ± 3) %,0.27 ± 0.02 (-131 ± 10) %,49.42 ± 19.58 (-34 ± 2) %,31.9 µM,Inactive,–,Inactive,49.4 µM,–,IC50 [11]: 28.3 µM; CYP2C9 Efficacy (in parenthesis) [7]: 28.26 ± 0 (-59 ± 2) %
COc1ccc(CN(CCN(C)C)c2ncccn2)cc1 [Thonzylamine hydrochloride],15.7 µM,–,–,–,18.5 µM,Inactive,Inactive,Inactive,0.7 µM,–,–
CN(C)CCCN1c2ccccc2Sc2ccc(C(F)(F)F)cc21 [Triflupromazine hydrochloride],7.62 µM,–,–,–,3.52 µM,Inactive,Inactive,Inactive,0.55 µM,–,–
CN(C)CCN(Cc1ccccc1)c1ccccn1 [Tripelennamine citrate],35.7 µM,–,–,–,26.5 µM,Inactive,Inactive,Inactive,0.2 µM,–,–
"CC[C@H]1OC(=O)[C@H](C)[C@@H](O[C@H]2C[C@@](C)(OC)[C@@H](O)[C@H](C)O2)[C@H](C)[C@@H](O[C@@H]2O[C@H](C)C[C@H](N(C)C)[C@H]2O)[C@](C)(O)C[C@@H](C)C(=O)[C@H](C)[C@@H](O)[C@]1(C)O [erythromycin, reference compound]",–,–,–,–,–,–,–,–,–,–,IC50 ([10]; IC50 CYP3A4 assay): 0.3 µM
"Clc1ccc(C(c2ccc(Cl)cc2)C(Cl)Cl)cc1 [p,p'-DDD]",0.12 µM,6.46 ± 0.74 (-96 ± 1) %,0.12 ± 0.06 (-136 ± 7) %,59 ± 16.44 (-79 ± 23) %,6.46 µM,Inactive,–,Inactive,59 µM,–,IC50 [11]: 5.55 µM; CYP2C9 Efficacy (in parenthesis) [7]: 5.55 ± 0.76 (-100 ± 3) %
